Results: article PMC7748244 (ACS Infectious Diseases, 2020)

The molecules below were run against T1, PfJmj3 (Plasmodium falciparum, UniProt Q8IIE4) (assay: Succinate-Glo luciferase-coupled assay).
T1 sequence (Q8IIE4 1-446): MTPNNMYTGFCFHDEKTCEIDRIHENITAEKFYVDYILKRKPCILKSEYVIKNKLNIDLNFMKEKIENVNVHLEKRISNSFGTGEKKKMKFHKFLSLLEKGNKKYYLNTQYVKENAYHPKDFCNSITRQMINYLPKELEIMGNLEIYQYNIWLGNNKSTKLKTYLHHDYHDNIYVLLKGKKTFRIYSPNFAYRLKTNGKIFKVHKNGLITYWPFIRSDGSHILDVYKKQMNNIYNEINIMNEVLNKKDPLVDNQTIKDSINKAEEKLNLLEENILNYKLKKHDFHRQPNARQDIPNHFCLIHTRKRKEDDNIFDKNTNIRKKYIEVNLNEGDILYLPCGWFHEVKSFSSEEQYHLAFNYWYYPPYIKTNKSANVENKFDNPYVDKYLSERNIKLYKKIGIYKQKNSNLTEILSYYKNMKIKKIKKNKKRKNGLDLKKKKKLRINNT
Type: biochemical

**Q.** With `Clc1ccc(N/N=C(\c2ccccc2)c2ccccn2)nc1` [JIB-04 E] as the molecule, how does the IC50 read?
**A.** 2600 nM

**Q.** Which IC50 does the source give for `CN(C)CCCNC(=O)c1ccc(-c2cc(O)c3ncccc3c2)cc1` [ML324] here?
**A.** 3300 nM

**Q.** `CC(C)C(=O)NC(c1ccco1)c1ccc2cccnc2c1O` (stereo not drawn) [SD-70] was tested. Which IC50 did it give?
**A.** 2400 nM
